Test [1] deals with A549. Kind of test: Antiproliferative activity against human A549 cells assessed as cell growth inhibition after 72 hrs by sulforhodamine B assay. The test is classed as functional, cell-based. The following applies: A549, 72 h.
In test [2] the test system is MDA-MB-231. Kind of test: Antiproliferative activity against human MDA-MB-231 cells assessed as cell growth inhibition after 72 hrs by sulforhodamine B assay. The test is classed as functional, cell-based. The following applies: MDA-MB-231, 72 h.
Test [3] deals with KB. Kind of test: Antiproliferative activity against human KB cells assessed as cell growth inhibition after 72 hrs by sulforhodamine B assay. The test is classed as functional, cell-based. Background: The SRB assay estimates cell density from bound dye.
Test [4] in a line: Antiproliferative activity against human KB-VIN cells assessed as cell growth inhibition after 72 hrs by sulforhodamine B assay. In kind it is functional, cell-based. The following applies: KBVIN.
In test [5] the test system is MCF7. Kind of test: Antiproliferative activity against human MCF7 cells assessed as cell growth inhibition after 72 hrs by sulforhodamine B assay. In kind it is functional, cell-based. The conditions noted are these: MCF7, 72 h.
The test system of test [6] is MCF7. Kind of test: Inhibition of colony formation in human MCF7 cells at 10 to 40 uM of compound exposure followed by compound washout and subsequent incubation for 3 weeks by crystal violet staining based assay. The test is classed as functional, cell-based. The conditions noted are these: dose microM 10-40.
Test [7] has as its target T1, DNA topoisomerase 1 (Homo sapiens) (UniProt P11387).
T1 sequence (whole entry): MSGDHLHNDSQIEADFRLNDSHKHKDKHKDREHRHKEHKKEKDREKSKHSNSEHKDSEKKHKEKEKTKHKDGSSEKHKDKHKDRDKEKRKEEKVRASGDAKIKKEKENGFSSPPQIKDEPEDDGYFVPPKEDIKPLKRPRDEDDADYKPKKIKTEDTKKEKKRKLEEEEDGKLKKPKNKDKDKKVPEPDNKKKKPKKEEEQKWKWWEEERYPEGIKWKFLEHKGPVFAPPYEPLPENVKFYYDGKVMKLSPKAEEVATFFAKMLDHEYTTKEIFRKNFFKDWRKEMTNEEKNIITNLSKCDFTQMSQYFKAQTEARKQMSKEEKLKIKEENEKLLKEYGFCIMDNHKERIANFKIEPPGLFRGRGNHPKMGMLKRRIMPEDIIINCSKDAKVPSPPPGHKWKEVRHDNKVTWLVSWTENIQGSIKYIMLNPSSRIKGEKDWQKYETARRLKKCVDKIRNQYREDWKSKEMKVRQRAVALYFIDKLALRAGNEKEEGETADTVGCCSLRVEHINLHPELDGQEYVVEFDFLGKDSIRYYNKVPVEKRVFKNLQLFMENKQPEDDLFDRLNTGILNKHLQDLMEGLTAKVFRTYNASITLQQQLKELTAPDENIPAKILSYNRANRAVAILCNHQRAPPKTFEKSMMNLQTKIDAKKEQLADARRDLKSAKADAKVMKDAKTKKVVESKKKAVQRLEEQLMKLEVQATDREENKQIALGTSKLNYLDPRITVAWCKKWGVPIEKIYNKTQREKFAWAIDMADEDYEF
Kind of test: Inhibition of topoisomerase 1 in human MCF7 cells nuclear extract assessed as decrease in relaxation/nicking of supercoiled DNA using supercoiled DNA as substrate at 40 uM after 1 hr by ethidium bromide staining based agarose gel electrophoresis analysis. The test is classed as subcellular. The conditions noted are these: Nucleus.

For test [8], the target named is DNA topoisomerase 2-alpha (Homo sapiens) (UniProt P11388). Kind of test: Inhibition of topoisomerase-2alpha in human MCF7 cells nuclear extract assessed as decrease in relaxation/nicking of kinetoplast DNA using kDNA as substrate at 40 uM after 15 mins by ethidium bromide staining based agarose gel electrophoresis analysis. In kind it is subcellular. The conditions noted are these: Nucleus.
Chain of DNA topoisomerase 2-alpha (Homo sapiens) (P11388 whole entry): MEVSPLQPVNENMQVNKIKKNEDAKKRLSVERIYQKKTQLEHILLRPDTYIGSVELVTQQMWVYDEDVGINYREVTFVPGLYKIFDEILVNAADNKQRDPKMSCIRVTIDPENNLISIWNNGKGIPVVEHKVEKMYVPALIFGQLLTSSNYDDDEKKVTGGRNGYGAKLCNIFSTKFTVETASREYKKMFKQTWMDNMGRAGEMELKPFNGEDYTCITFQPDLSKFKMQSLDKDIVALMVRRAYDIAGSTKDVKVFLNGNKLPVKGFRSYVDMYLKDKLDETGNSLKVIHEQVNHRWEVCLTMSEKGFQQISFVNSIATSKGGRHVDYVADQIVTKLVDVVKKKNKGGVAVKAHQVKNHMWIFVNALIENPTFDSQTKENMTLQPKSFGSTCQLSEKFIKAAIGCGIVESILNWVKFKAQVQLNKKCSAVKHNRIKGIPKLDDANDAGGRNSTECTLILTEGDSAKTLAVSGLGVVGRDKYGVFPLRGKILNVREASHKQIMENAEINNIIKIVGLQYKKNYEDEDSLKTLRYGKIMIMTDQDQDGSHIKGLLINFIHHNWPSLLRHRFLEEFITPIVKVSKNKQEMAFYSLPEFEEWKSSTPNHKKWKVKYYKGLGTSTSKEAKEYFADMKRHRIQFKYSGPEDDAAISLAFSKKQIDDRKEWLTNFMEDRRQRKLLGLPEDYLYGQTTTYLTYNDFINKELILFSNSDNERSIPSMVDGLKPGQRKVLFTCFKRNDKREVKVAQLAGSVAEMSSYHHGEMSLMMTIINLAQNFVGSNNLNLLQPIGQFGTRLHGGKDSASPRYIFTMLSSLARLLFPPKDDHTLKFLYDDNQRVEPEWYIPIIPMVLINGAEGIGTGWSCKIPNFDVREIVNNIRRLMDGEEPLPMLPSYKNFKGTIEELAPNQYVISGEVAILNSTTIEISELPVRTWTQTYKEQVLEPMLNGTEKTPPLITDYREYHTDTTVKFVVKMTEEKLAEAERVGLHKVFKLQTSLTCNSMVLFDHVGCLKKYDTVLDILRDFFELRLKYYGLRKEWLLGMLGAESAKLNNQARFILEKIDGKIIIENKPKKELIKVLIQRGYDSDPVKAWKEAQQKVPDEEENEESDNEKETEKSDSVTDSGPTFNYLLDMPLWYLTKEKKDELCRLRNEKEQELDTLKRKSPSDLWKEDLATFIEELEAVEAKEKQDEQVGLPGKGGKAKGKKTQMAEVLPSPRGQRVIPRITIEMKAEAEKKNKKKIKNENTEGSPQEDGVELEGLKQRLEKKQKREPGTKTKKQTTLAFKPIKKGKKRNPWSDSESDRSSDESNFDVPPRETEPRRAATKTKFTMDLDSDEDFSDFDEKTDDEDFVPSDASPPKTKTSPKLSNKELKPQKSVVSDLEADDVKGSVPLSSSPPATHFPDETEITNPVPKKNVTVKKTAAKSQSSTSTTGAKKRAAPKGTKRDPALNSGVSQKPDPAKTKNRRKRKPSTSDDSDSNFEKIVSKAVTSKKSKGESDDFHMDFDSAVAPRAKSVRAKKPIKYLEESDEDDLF

In test [9] the target is T1, DNA topoisomerase 1 (Homo sapiens). Kind of test: Inhibition of recombinant human topoisomerase 1 assessed as decrease in relaxation/nicking of supercoiled DNA using supercoiled DNA as substrate at 10 uM after 1 hr by ethidium bromide staining based agarose gel electrophoresis analysis.
For test [10] the target is unchanged. Kind of test: Inhibition of recombinant human topoisomerase 1 assessed as decrease in relaxation/nicking of supercoiled DNA using supercoiled DNA as substrate at 30 uM after 1 hr by ethidium bromide staining based agarose gel electrophoresis analysis.
Test [11] addresses DNA topoisomerase 2-alpha (Homo sapiens) (UniProt P11388). Kind of test: Inhibition of recombinant human topoisomerase-2alpha assessed as decrease in relaxation/nicking of kinetoplast DNA using kDNA as substrate at 100 uM after 15 mins by ethidium bromide staining based agarose gel electrophoresis analysis.
For test [12], the system named is MCF7. Kind of test: Induction of apoptosis in human MCF7 cells at 40 uM incubated for 24 to 72 hrs by Annexin V-FITC/propidium iodide staining-based flow cytometric analysis. The test is classed as functional, cell-based. The conditions noted are these: time hrs 24-72. (In general: In flow cytometry, cells or beads pass a laser one at a time.)

Active and inactive are the calls of the source. No cut-off for these calls is given here. Bounds are passed on as bounds.

On to `C=C(C)[C@@H]1CC[C@]2(C(=O)OCc3ccc(Cl)cc3)CC[C@]3(C)[C@H](CC[C@@H]4[C@@]5(C)CCC(=O)C(C)(C)[C@@H]5CC[C@]43C)[C@@H]12`, for which the IC50 in test [1], in [2], in test [3], in test [4] and in [5] was above 40 µM in each case.
On to `C=C(C)[C@@H]1CC[C@]2(C(=O)O)CC[C@]3(C)[C@H](CC[C@@H]4[C@@]5(C)CC[C@H](O)C(C)(C)[C@@H]5CC[C@]43C)[C@@H]12` [BETULINIC ACID], for which the IC50 is 29.5 µM in test [1]; above 40 µM in test [2]; 28.7 µM in test [3]; 30.7 µM in [4]; above 40 µM in [5]. For the same compound, the inhibition result in test [6] and in test [10] was “Active” each time. The inhibition entry in [7], in [8], in [9] and in test [11] was “inactive” each time. Also, in test [12], the outcome was Active.
For `C=C(C)[C@@H]1CC[C@]2(C(=O)OC)CC[C@]3(C)[C@H](CC[C@@H]4[C@@]5(C)CC(F)[C@H](OC(=O)CC(C)(C)C(=O)O)C(C)(C)[C@@H]5CC[C@]43C)[C@@H]12` (some centres undefined), the IC50 in test [1], in test [2], in test [3], in [4] and in test [5] was above 10 µM throughout.
Take `C=C(C)[C@@H]1CC[C@]2(C(=O)OCc3ccc(Cl)cc3)CC[C@]3(C)[C@H](CC[C@@H]4[C@@]5(C)CC[C@@](O)(C(F)(F)F)C(C)(C)[C@@H]5CC[C@]43C)[C@@H]12`: the concentration for half-maximal inhibition (IC50) in test [1], in [2], in test [3], in test [4] and in [5] was above 40 µM in each case.
As to `C=C(C)[C@@H]1CC[C@]2(C(=O)O)CC[C@]3(C)[C@H](CC[C@@H]4[C@@]5(C)C[C@@H](F)[C@H](O)C(C)(C)[C@@H]5CC[C@]43C)[C@@H]12`, the IC50 in test [1] was determined as 5.6 µM; in test [2] it was 9 µM; in [3], 6.7 µM; in [4], 6.7 µM; in test [5], 15.3 µM.
As to `C=C(C)[C@@H]1CC[C@]2(C(=O)O)CC[C@]3(C)[C@H](CC[C@@H]4[C@@]5(C)C[C@H](F)[C@H](O)C(C)(C)[C@@H]5CC[C@]43C)[C@@H]12`, the IC50 in test [1] was determined as 4.5 µM; in [2] it was 12.4 µM; in test [3] it was 6.1 µM; in [4], 6 µM; in test [5], 14.4 µM.
With `CC(=O)O[C@H]1C(=O)[C@@]2(C)[C@H]([C@H](OC(=O)c3ccccc3)[C@]3(O)C[C@H](OC(=O)[C@H](O)[C@@H](NC(=O)c4ccccc4)c4ccccc4)C(C)=C1C3(C)C)[C@]1(OC(C)=O)CO[C@@H]1C[C@@H]2O` [PACLITAXEL], the half-maximal inhibitory concentration (IC50) in [4] worked out at 2.9 µM.
Regarding `C=C(C)[C@@H]1CC[C@]2(C(=O)OC)CC[C@]3(C)[C@H](CC[C@@H]4[C@@]5(C)CC[C@@](O)(C(F)(F)F)C(C)(C)[C@@H]5CC[C@]43C)[C@@H]12`, the 50% inhibitory concentration (IC50) in test [1], in [2], in [3], in [4] and in test [5] was above 10 µM in each case.
Regarding `C=C(C)[C@@H]1CC[C@]2(C(=O)O)CC[C@]3(C)[C@H](CC[C@@H]4[C@@]5(C)CC(F)[C@H](OC(=O)CC(C)(C)C(=O)O)C(C)(C)[C@@H]5CC[C@]43C)[C@@H]12` (some centres undefined), the half-maximal inhibitory concentration (IC50) in test [1], in [2], in test [3], in test [4] and in test [5] was above 10 µM in each case.
For the compound `C=C(C)[C@@H]1CC[C@]2(C(=O)O)CC[C@]3(C)[C@H](CC[C@@H]4[C@@]5(C)CC[C@@](O)(C(F)(F)F)C(C)(C)[C@@H]5CC[C@]43C)[C@@H]12`, the half-maximal inhibitory concentration (IC50) is 5.4 µM in test [1]; above 10 µM in test [2]; 5.9 µM in test [3]; 6 µM in test [4]; 7.8 µM in test [5].
`COc1cc([C@@H]2c3cc4c(cc3[C@@H](O[C@@H]3O[C@@H]5CO[C@@H](C)O[C@H]5[C@H](O)[C@H]3O)[C@H]3COC(=O)[C@H]23)OCO4)cc(OC)c1O`: the inhibition entry in test [11] is “Active”.
For the compound `C=C(C)[C@@H]1CC[C@]2(C(=O)OCc3ccc(Cl)cc3)CC[C@]3(C)[C@H](CC[C@@H]4[C@@]5(C)C[C@H](F)C(=O)C(C)(C)[C@@H]5CC[C@]43C)[C@@H]12`, the IC50 in test [1], in test [2], in test [3], in [4] and in test [5] was above 40 µM throughout.
For the compound `C=C(C)[C@@H]1CC[C@]2(C(=O)OC)CC[C@]3(C)[C@H](CC[C@@H]4[C@@]5(C)CC(F)C(=O)C(C)(C)[C@@H]5CC[C@]43C)[C@@H]12` (some centres undefined), the half-inhibitory concentration (IC50) in test [1], in test [2], in test [3], in [4] and in test [5] was above 10 µM each time.
Turning to `C=C(C)[C@@H]1CC[C@]2(C(=O)OC)CC[C@]3(C)[C@H](CC[C@@H]4[C@@]5(C)CC(F)[C@H](O)C(C)(C)[C@@H]5CC[C@]43C)[C@@H]12` (mixture of isomers), the concentration for half-maximal inhibition (IC50) in test [1], in test [2], in test [3], in [4] and in [5] was above 10 µM in each case.
Consider `C=C(C)[C@@H]1CC[C@]2(C(=O)OCc3ccc(Cl)cc3)CC[C@]3(C)[C@H](CC[C@@H]4[C@@]5(C)C[C@@H](F)C(=O)C(C)(C)[C@@H]5CC[C@]43C)[C@@H]12`, for which the IC50 in [1], in test [2], in test [3], in [4] and in [5] was above 40 µM throughout.

What is called IC50 is the concentration needed to halve the response being measured.

(Values after ChEMBL document CHEMBL4665654, “Design, synthesis and evaluation of antiproliferative activity of fluorinated betulinic acid” (Bioorg Med Chem, 2019).)
